{"source": "patent US11053204B2", "about": "“Pyrimidinyloxy benzene derivatives as herbicides” (FMC Corporation, priority 2015, dated 2021)", "experiment_in_all_cases": "Test C preemergence, plant response rating", "assay_type_in_all_cases": "in vivo", "key": {"[1]": {"test_system": "oilseed rape (Brassica napus)", "details": "Brassica napus, pre-emergence, Preemergence", "procedure,_shortened": "(§1)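 Both timings shared one formulation, a non-phytotoxic solvent mixture with surfactant, and a greenhouse period of 13 to 15 d. Preemergence used seeded loam/sand or silt loam soil, postemergence used 2 to 18 cm plants; visual ratings ran from 0 (no effect) to 100 (complete control).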"}, "corn (Zea mays)": {"test_system": "corn (Zea mays)", "details": "Zea mays, pre-emergence, Preemergence", "procedure,_shortened": "as §1"}, "[2]": {"test_system": "velvetleaf (Abutilon theophrasti)", "details": "Abutilon theophrasti, pre-emergence, Preemergence", "procedure,_shortened": "as §1"}, "[3]": {"test_system": "ragweed (common ragweed, Ambrosia elatior)", "details": "Ambrosia artemisiifolia, pre-emergence, Preemergence", "procedure,_shortened": "as §1"}, "[4]": {"test_system": "crabgrass, large (large crabgrass, Digitaria sanguinalis)", "details": "Digitaria sanguinalis, pre-emergence, Preemergence", "procedure,_shortened": "as §1"}, "[5]": {"test_system": "blackgrass (Alopecurus myosuroides)", "details": "Alopecurus myosuroides, pre-emergence, Preemergence", "procedure,_shortened": "as §1"}, "soybean (Glycine max)": {"test_system": "soybean (Glycine max)", "details": "Glycine max, pre-emergence, Preemergence", "procedure,_shortened": "as §1"}, "[6]": {"test_system": "foxtail, giant (giant foxtail, Setaria faberii)", "details": "Setaria faberi, pre-emergence, Preemergence", "procedure,_shortened": "as §1"}, "[7]": {"test_system": "morningglory (Ipomoea coccinea)", "details": "Ipomoea, pre-emergence, Preemergence", "procedure,_shortened": "as §1"}, "[8]": {"test_system": "waterhemp (common waterhemp, Amaranthus rudis)", "details": "Amaranthus tuberculatus, pre-emergence, Preemergence", "procedure,_shortened": "as §1"}, "[9]": {"test_system": "nutsedge, yellow (yellow nutsedge, Cyperus esculentus)", "details": "Cyperus, pre-emergence, Preemergence", "procedure,_shortened": "as §1"}, "[10]": {"test_system": "ryegrass, Italian (Italian ryegrass, Lolium multiflorum)", "details": "Lolium multiflorum, pre-emergence, Preemergence", "procedure,_shortened": "as §1"}, "[11]": {"test_system": "lambsquarters (Chenopodium album)", "details": "Chenopodium album, pre-emergence, Preemergence", "procedure,_shortened": "as §1"}, "[12]": {"test_system": "wheat (winter wheat, Triticum aestivum)", "details": "Triticum aestivum, pre-emergence, Preemergence", "procedure,_shortened": "as §1"}}, "data": [{"compound": "N#Cc1cccc(Oc2ncc(Cl)cn2)c1CCCCC(F)(F)F", "note": "[Compound 73, 3-[(5-chloro-2-pyrimidinyl)oxy]-2-(5,5,5-trifluoropentyl)benzonitrile]", "values": [{"measurement": "plant injury at 125 g/ha", "setting": "[1]; 125 g ai/ha, scale of 0 to 100", "value": 65, "unit": "%"}, {"measurement": "plant injury at 16 g/ha", "setting": "[1]; 16 g ai/ha, scale 0 to 100", "value": 0, "unit": "%"}, {"measurement": "plant injury at 31 g/ha", "setting": "[1]; 31 g ai/ha, scale 0 to 100", "value": 20, "unit": "%"}, {"measurement": "plant injury at 62 g/ha", "setting": "[1]; 62 g ai/ha, scale 0 to 100", "value": 50, "unit": "%"}, {"measurement": "Corn plant response rating (crop injury, 0 = no effect, 100 = complete kill) at 62 g/ha", "setting": "corn (Zea mays); 62 g ai/ha, scale of 0 to 100", "value": 40, "unit": "%"}, {"measurement": "Corn plant response rating (crop injury, 0 = no effect, 100 = complete kill) at 125 g/ha", "setting": "corn (Zea mays); 125 g ai/ha, scale of 0 to 100", "value": 50, "unit": "%"}, {"measurement": "Corn plant response rating (crop injury, 0 = no effect, 100 = complete kill) at 16 g/ha", "setting": "corn (Zea mays); 16 g ai/ha, scale 0 to 100", "value": 0, "unit": "%"}, {"measurement": "Corn plant response rating (crop injury, 0 = no effect, 100 = complete kill) at 31 g/ha", "setting": "corn (Zea mays); 31 g ai/ha, scale 0 to 100", "value": 20, "unit": "%"}, {"measurement": "pest or weed control at 125 g/ha", "setting": "[2]; 125 g ai/ha, scale of 0 to 100", "value": 95, "unit": "%"}, {"measurement": "pest or weed control at 16 g/ha", "setting": "[2]; 16 g ai/ha, scale 0 to 100", "value": 0, "unit": "%"}, {"measurement": "pest or weed control at 31 g/ha", "setting": "[2]; 31 g ai/ha, scale 0 to 100", "value": 30, "unit": "%"}, {"measurement": "pest or weed control at 62 g/ha", "setting": "[2]; 62 g ai/ha, scale 0 to 100", "value": 75, "unit": "%"}, {"measurement": "pest or weed control at 125 g/ha", "setting": "[3]; 125 g ai/ha, scale of 0 to 100", "value": 25, "unit": "%"}, {"measurement": "pest or weed control at 16 g/ha", "setting": "[3]; 16 g ai/ha, scale 0 to 100", "value": 0, "unit": "%"}, {"measurement": "pest or weed control at 31 g/ha", "setting": "[3]; 31 g ai/ha, scale 0 to 100", "value": 0, "unit": "%"}, {"measurement": "pest or weed control at 62 g/ha", "setting": "[3]; 62 g ai/ha, scale 0 to 100", "value": 10, "unit": "%"}, {"measurement": "pest or weed control at 62 g/ha", "setting": "[4]; 62 g ai/ha, scale of 0 to 100", "value": 100, "unit": "%"}, {"measurement": "pest or weed control at 125 g/ha", "setting": "[4]; 125 g ai/ha, scale of 0 to 100", "value": 100, "unit": "%"}, {"measurement": "pest or weed control at 16 g/ha", "setting": "[4]; 16 g ai/ha, scale 0 to 100", "value": 98, "unit": "%"}, {"measurement": "pest or weed control at 31 g/ha", "setting": "[4]; 31 g ai/ha, scale 0 to 100", "value": 100, "unit": "%"}, {"measurement": "pest or weed control at 62 g/ha", "setting": "[5]; 62 g ai/ha, scale of 0 to 100", "value": 100, "unit": "%"}, {"measurement": "pest or weed control at 125 g/ha", "setting": "[5]; 125 g ai/ha, scale of 0 to 100", "value": 100, "unit": "%"}, {"measurement": "pest or weed control at 16 g/ha", "setting": "[5]; 16 g ai/ha, scale 0 to 100", "value": 5, "unit": "%"}, {"measurement": "pest or weed control at 31 g/ha", "setting": "[5]; 31 g ai/ha, scale 0 to 100", "value": 98, "unit": "%"}, {"measurement": "plant injury at 125 g/ha", "setting": "soybean (Glycine max); 125 g ai/ha, scale of 0 to 100", "value": 40, "unit": "%"}, {"measurement": "plant injury at 16 g/ha", "setting": "soybean (Glycine max); 16 g ai/ha, scale 0 to 100", "value": 0, "unit": "%"}, {"measurement": "plant injury at 31 g/ha", "setting": "soybean (Glycine max); 31 g ai/ha, scale 0 to 100", "value": 0, "unit": "%"}, {"measurement": "plant injury at 62 g/ha", "setting": "soybean (Glycine max); 62 g ai/ha, scale 0 to 100", "value": 25, "unit": "%"}, {"measurement": "pest or weed control at 62 g/ha", "setting": "[6]; 62 g ai/ha, scale of 0 to 100", "value": 100, "unit": "%"}, {"measurement": "pest or weed control at 125 g/ha", "setting": "[6]; 125 g ai/ha, scale of 0 to 100", "value": 100, "unit": "%"}, {"measurement": "pest or weed control at 16 g/ha", "setting": "[6]; 16 g ai/ha, scale 0 to 100", "value": 98, "unit": "%"}, {"measurement": "pest or weed control at 31 g/ha", "setting": "[6]; 31 g ai/ha, scale 0 to 100", "value": 100, "unit": "%"}, {"measurement": "pest or weed control at 125 g/ha", "setting": "[7]; 125 g ai/ha, scale of 0 to 100", "value": 75, "unit": "%"}, {"measurement": "pest or weed control at 16 g/ha", "setting": "[7]; 16 g ai/ha, scale 0 to 100", "value": 0, "unit": "%"}, {"measurement": "pest or weed control at 31 g/ha", "setting": "[7]; 31 g ai/ha, scale 0 to 100", "value": 10, "unit": "%"}, {"measurement": "pest or weed control at 62 g/ha", "setting": "[7]; 62 g ai/ha, scale 0 to 100", "value": 60, "unit": "%"}, {"measurement": "pest or weed control at 125 g/ha", "setting": "[8]; 125 g ai/ha, scale of 0 to 100", "value": 100, "unit": "%"}, {"measurement": "pest or weed control at 16 g/ha", "setting": "[8]; 16 g ai/ha, scale 0 to 100", "value": 65, "unit": "%"}, {"measurement": "pest or weed control at 31 g/ha", "setting": "[8]; 31 g ai/ha, scale 0 to 100", "value": 100, "unit": "%"}, {"measurement": "pest or weed control at 62 g/ha", "setting": "[8]; 62 g ai/ha, scale 0 to 100", "value": 100, "unit": "%"}, {"measurement": "pest or weed control at 125 g/ha", "setting": "[9]; 125 g ai/ha, scale of 0 to 100", "value": 10, "unit": "%"}, {"measurement": "pest or weed control at 16 g/ha", "setting": "[9]; 16 g ai/ha, scale 0 to 100", "value": 0, "unit": "%"}, {"measurement": "pest or weed control at 31 g/ha", "setting": "[9]; 31 g ai/ha, scale 0 to 100", "value": 0, "unit": "%"}, {"measurement": "pest or weed control at 62 g/ha", "setting": "[9]; 62 g ai/ha, scale 0 to 100", "value": 0, "unit": "%"}, {"measurement": "pest or weed control at 125 g/ha", "setting": "[10]; 125 g ai/ha, scale of 0 to 100", "value": 100, "unit": "%"}, {"measurement": "pest or weed control at 16 g/ha", "setting": "[10]; 16 g ai/ha, scale 0 to 100", "value": 30, "unit": "%"}, {"measurement": "pest or weed control at 31 g/ha", "setting": "[10]; 31 g ai/ha, scale 0 to 100", "value": 35, "unit": "%"}, {"measurement": "pest or weed control at 62 g/ha", "setting": "[10]; 62 g ai/ha, scale 0 to 100", "value": 85, "unit": "%"}, {"measurement": "pest or weed control at 125 g/ha", "setting": "[11]; 125 g ai/ha, scale of 0 to 100", "value": 100, "unit": "%"}, {"measurement": "pest or weed control at 16 g/ha", "setting": "[11]; 16 g ai/ha, scale 0 to 100", "value": 85, "unit": "%"}, {"measurement": "pest or weed control at 31 g/ha", "setting": "[11]; 31 g ai/ha, scale 0 to 100", "value": 90, "unit": "%"}, {"measurement": "pest or weed control at 62 g/ha", "setting": "[11]; 62 g ai/ha, scale 0 to 100", "value": 90, "unit": "%"}, {"measurement": "plant injury at 125 g/ha", "setting": "[12]; 125 g ai/ha, scale of 0 to 100", "value": 70, "unit": "%"}, {"measurement": "plant injury at 16 g/ha", "setting": "[12]; 16 g ai/ha, scale 0 to 100", "value": 0, "unit": "%"}, {"measurement": "plant injury at 31 g/ha", "setting": "[12]; 31 g ai/ha, scale 0 to 100", "value": 0, "unit": "%"}, {"measurement": "plant injury at 62 g/ha", "setting": "[12]; 62 g ai/ha, scale 0 to 100", "value": 30, "unit": "%"}]}]}
